Test results: patent publication US6358885B1, “Substituted phenylheterocyclic herbicides” (Mississippi State University, priority 1992, dated 2002)

How the values were obtained:
barley = assay: Test B preemergence/postemergence greenhouse plant response rating 0 to 10; assay type: in vivo, Hordeum vulgare; settings: 0 to 10 scale
Procedure, shortened: (§1)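 Test chemicals, dissolved in a non-phytotoxic solvent, were applied to soil at planting and, at the same time, over foliage of seedlings at the one to four leaf stage.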

barnyardgrass = assay: as above; assay type: in vivo, Echinochloa crus-galli; settings: 0 to 10 scale
Procedure, shortened: as §1

chickweed [1] = assay: as above; assay type: in vivo, Stellaria media; settings: 0 to 10 scale
Procedure, shortened: as §1

corn = assay: as above; assay type: in vivo, Zea mays; settings: 0 to 10 scale
Procedure, shortened: as §1

crabgrass [2] = assay: as above; assay type: in vivo, Digitaria spp.; settings: 0 to 10 scale
Procedure, shortened: as §1

giant foxtail [3] = assay: as above; assay type: in vivo, Setaria faberii; settings: 0 to 10 scale
Procedure, shortened: as §1

rape = assay: as above; assay type: in vivo, Brassica napus; settings: 0 to 10 scale
Procedure, shortened: as §1

sorghum = assay: as above; assay type: in vivo, Sorghum bicolor; settings: 0 to 10 scale
Procedure, shortened: as §1

wheat = assay: as above; assay type: in vivo, Triticum aestivum; settings: 0 to 10 scale
Procedure, shortened: as §1

bedstraw = assay: Test C preemergence/postemergence greenhouse plant response rating 0 to 100; assay type: in vivo, Galium aparine; settings: POSTEMERGENCE; for Plant response rating, Bedstraw: 0 to 100 scale
Procedure, shortened: (§2)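 Compounds in non-phytotoxic solvent applied preemergence to sandy loam one day after planting, postemergence at the 1–4 leaf stage, or to ~2.5 cm floodwater over silt loam.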

chickweed [4] = assay: as above; assay type: in vivo, Stellaria media; settings: POSTEMERGENCE; for Plant response rating, Chickweed: 0 to 100 scale
Procedure, shortened: as §2

crabgrass [5] = assay: as above; assay type: in vivo, Digitaria sanguinalis; settings: POSTEMERGENCE; for Plant response rating, Crabgrass: 0 to 100 scale
Procedure, shortened: as §2

downy brome = assay: as above; assay type: in vivo, Bromus tectorum; settings: POSTEMERGENCE; for Plant response rating Downy Brome: 0 to 100 scale
Procedure, shortened: as §2

giant foxtail [6] = assay: as above; assay type: in vivo, Setaria faberii; settings: POSTEMERGENCE; for Plant response rating, Giant foxtail: 0 to 100 scale
Procedure, shortened: as §2

wild buckwheat = assay: as above; assay type: in vivo, Polygonum convolvulus; settings: POSTEMERGENCE; for Plant response rating, Wild buckwheat: 0 to 100 scale
Procedure, shortened: as §2

wild oat = assay: as above; assay type: in vivo, Avena fatua; settings: POSTEMERGENCE; for Plant response rating, Wild oat: 0 to 100 scale
Procedure, shortened: as §2

rice = assay: Test C flood test plant response rating 0 to 100; assay type: in vivo, Oryza sativa; settings: for Plant response rating Rice Japonica: flood test species listed under POSTEMERGENCE, 0 to 100 scale
Procedure, shortened: as §2

duck salad = assay: Test C flood test plant response rating 0 to 100; assay type: in vivo, Heteranthera limosa; settings: for Plant response rating Duck salad: flood test species listed under POSTEMERGENCE, 0 to 100 scale
Procedure, shortened: as §2

[7] = POSTEMERGENCE section, flood test, Rate 4 g/ha
[8] = Rate 16 g/ha, under POSTEMERGENCE head (flood test species)

CC(C)OC(=O)c1cc(-c2nn3c(c2Cl)CCCC3)c(F)cc1Cl [Compound 44]
Plant response rating, Barley (barley; POSTEMERGENCE, Rate 50 g/ha): 4
Plant response rating, Barley (barley; POSTEMERGENCE, Rate 200 g/ha): 6
Plant response rating, Barley (barley; PREEMERGENCE, Rate 50 g/ha): 1
Plant response rating, Barley (barley; Rate 200 g/ha, PREEMERGENCE): 2
Plant response rating, Barnyardgrass (barnyardgrass; POSTEMERGENCE, Rate 50 g/ha): 8
Plant response rating, Barnyardgrass (barnyardgrass; POSTEMERGENCE, Rate 200 g/ha): 10
Plant response rating, Barnyardgrass (barnyardgrass; PREEMERGENCE, Rate 50 g/ha): 5
Plant response rating, Barnyardgrass (barnyardgrass; Rate 200 g/ha, PREEMERGENCE): 8
Plant response rating, Chickweed (chickweed [1]; POSTEMERGENCE, Rate 200 g/ha): 10
Plant response rating, Chickweed (chickweed [1]; PREEMERGENCE, Rate 50 g/ha): 9
Plant response rating, Chickweed (chickweed [1]; Rate 200 g/ha, PREEMERGENCE): 9
Plant response rating, Corn (corn; POSTEMERGENCE, Rate 50 g/ha): 4
Plant response rating, Corn (corn; POSTEMERGENCE, Rate 200 g/ha): 6
Plant response rating, Corn (corn; PREEMERGENCE, Rate 50 g/ha): 2
Plant response rating, Corn (corn; Rate 200 g/ha, PREEMERGENCE): 3
Plant response rating, Crabgrass (crabgrass [2]; POSTEMERGENCE, Rate 200 g/ha): 10
Plant response rating, Crabgrass (crabgrass [2]; PREEMERGENCE, Rate 50 g/ha): 3
Plant response rating, Crabgrass (crabgrass [2]; Rate 200 g/ha, PREEMERGENCE): 9
Plant response rating, Giant foxtail (giant foxtail [3]; POSTEMERGENCE, Rate 50 g/ha): 6
Plant response rating, Giant foxtail (giant foxtail [3]; PREEMERGENCE, Rate 50 g/ha): 7
Plant response rating, Giant foxtail (giant foxtail [3]; Rate 200 g/ha, POSTEMERGENCE): 9
Plant response rating, Giant foxtail (giant foxtail [3]; Rate 200 g/ha, PREEMERGENCE): 8
Plant response rating, Rape (rape; POSTEMERGENCE, Rate 50 g/ha): 9
Plant response rating, Rape (rape; PREEMERGENCE, Rate 50 g/ha): 2
Plant response rating, Rape (rape; Rate 200 g/ha, POSTEMERGENCE): 10
Plant response rating, Rape (rape; Rate 200 g/ha, PREEMERGENCE): 8
Plant response rating, Sorghum (sorghum; POSTEMERGENCE, Rate 50 g/ha): 4
Plant response rating, Sorghum (sorghum; PREEMERGENCE, Rate 50 g/ha): 1
Plant response rating, Sorghum (sorghum; Rate 200 g/ha, POSTEMERGENCE): 5
Plant response rating, Sorghum (sorghum; Rate 200 g/ha, PREEMERGENCE): 2
Plant response rating, Wheat (wheat; POSTEMERGENCE, Rate 50 g/ha): 6
Plant response rating, Wheat (wheat; PREEMERGENCE, Rate 50 g/ha): 3
Plant response rating, Wheat (wheat; Rate 200 g/ha, POSTEMERGENCE): 6
Plant response rating, Wheat (wheat; Rate 200 g/ha, PREEMERGENCE): 3
Plant response rating, Bedstraw (bedstraw; 62 g/ha): 80
Plant response rating, Bedstraw (bedstraw; 250 g/ha): 100
Plant response rating (0 to 100), Bedstraw (bedstraw; Rate 4 g/ha): 60
Plant response rating (0 to 100), Bedstraw (bedstraw; Rate 16 g/ha): 80
Plant response rating, Chickweed (chickweed [4]; 62 g/ha): 95
Plant response rating, Chickweed (chickweed [4]; 250 g/ha): 100
Plant response rating (0 to 100), Chickweed (chickweed [4]; Rate 4 g/ha): 30
Plant response rating (0 to 100), Chickweed (chickweed [4]; Rate 16 g/ha): 80
Plant response rating, Crabgrass (crabgrass [5]; 62 g/ha): 40
Plant response rating, Crabgrass (crabgrass [5]; 250 g/ha): 50
Plant response rating (0 to 100), Crabgrass (crabgrass [5]; Rate 4 g/ha): 20
Plant response rating (0 to 100), Crabgrass (crabgrass [5]; Rate 16 g/ha): 30
Plant response rating Downy Brome (downy brome; 62 g/ha): 50
Plant response rating Downy Brome (downy brome; 250 g/ha): 90
Plant response rating (0 to 100), Downy Brome (downy brome; Rate 4 g/ha): 20
Plant response rating (0 to 100), Downy Brome (downy brome; Rate 16 g/ha): 40
Plant response rating, Giant foxtail (giant foxtail [6]; 62 g/ha): 60
Plant response rating, Giant foxtail (giant foxtail [6]; 250 g/ha): 100
Plant response rating (0 to 100), Giant foxtail (giant foxtail [6]; Rate 4 g/ha): 20
Plant response rating (0 to 100), Giant foxtail (giant foxtail [6]; Rate 16 g/ha): 40
Plant response rating, Wild buckwheat (wild buckwheat; 62 g/ha): 100
Plant response rating, Wild buckwheat (wild buckwheat; 250 g/ha): 100
Plant response rating (0 to 100), Wild buckwheat (wild buckwheat; Rate 4 g/ha): 70
Plant response rating (0 to 100), Wild buckwheat (wild buckwheat; Rate 16 g/ha): 90
Plant response rating, Wild oat (wild oat; 62 g/ha): 50
Plant response rating, Wild oat (wild oat; 250 g/ha): 60
Plant response rating (0 to 100), Wild oat (wild oat; Rate 4 g/ha): 20
Plant response rating (0 to 100), Wild oat (wild oat; Rate 16 g/ha): 30
Plant response rating (0 to 100), Rice Japonica (rice; [7]): 10
Plant response rating (0 to 100), Rice Japonica (rice; [8]): 30
Plant response rating Rice Japonica (rice; 62 g/ha): 60
Plant response rating Rice Japonica (rice; 250 g/ha): 85
Plant response rating (0 to 100), Duck salad (duck salad; [7]): 0
Plant response rating (0 to 100), Duck salad (duck salad; [8]): 30
Plant response rating Duck salad (duck salad; 62 g/ha): 70
Plant response rating Duck salad (duck salad; 250 g/ha): 90
